Here are results for two compounds from US10596270B2, “Anti-folate receptor antibody conjugates, compositions comprising anti-folate receptor antibody conjugates, and methods of making and using anti-folate receptor antibody conjugates” (Sutro Biopharma, Inc., priority 2017, dated 2020).

One data set has as its system Igrov1 cells. The experiment in a line: In vitro cell killing (ADCs, free drugs), Igrov1 cells. The format is cell-based.
For the next data set, the system named is A549 cells. The experiment in a line: In vitro cell killing (ADCs, free drugs), FolRα-negative A549 cells. Format: cell-based.
Another data set relates to cell line tested. As to the kind of experiment: Free drug in vitro cytotoxicity, various cell lines. As to conditions: in words. The format is cell-based.
Data set [1] in a line: Pharmacokinetics of free drugs in Sprague-Dawley rats. The format is in vivo, rat. Conditions: rat, blood, female Sprague-Dawley rats, IV bolus; for AUC(0-t): read-out: AUC0-last ± SE; for half-life: read-out: Terminal t1/2 (converted); for Vd: read-out: VSS. As for the experimental part: (§1) Blood samples were collected at […], 1, 2, 8, 24, 32, 48, and 72 hour post-dose. Levels of free drug (I) and (II) were measured by LC-MS/MS and non-compartmental pharmacokinetic analysis was conducted using Phoenix WinNonlin Version 6.4 (Pharsight Corporation). The PK of free drug (I) could not be estimated due to the fact that concentrations of (I) increased from 2 to 8 hours and were undetectable thereafter.

Data set [2] is described as follows: Body weight of rats given free drugs. As to conditions: free drug (I) 0.4 and 1 mg/kg; free drug (II) 0.4 mg/kg; IV bolus. The format is in vivo, rat. As for the experimental part: as §1, with “To assess the pharmacokinetic profile of free drug (I), female Sprague-Dawley rats (mean body weight 250 g) were given either a 0.4 mg/kg or 1 mg/kg dose by IV bolus administration (N=three animal per dose level) via an indwelling jugular vein catheter. Blood” for “Blood”

In data set [3] the test system is MES-SA/MX2 cells (PgP over-expressing). As to the kind of experiment: Free drug cell killing on PgP over-expressing MES-SA/MX2 cells with or without PgP inhibitor GF120918. The format is cell-based. The text has this: (§2) To evaluate if free drug (I) is specifically a substrate of P-glycoprotein (PgP), which is responsible for cisplatin-resistance in some of the ovarian cancer cell lines (Stordal et al. 2012. PLoS One 7(7)), the free drug cell killing activities were investigated on PgP over-expressing MES-SA/MX2 cell line and the parental MES-SA cells. The cell killing activity of free drug (I), free drug (II) and a control free drug (MMAE, designated “III”) on the PgP-overexpressing MES-SA/MX2 cells were reduced by different levels compared to their activity on parental MES-SA cells. The MES-SA/MX2 cells were also treated with PgP inhibitor GF120918 (5 μM) to further investigate if the observed cell killing reduction is contributed by the presence of PgP on the cell surface.

The next data set concerns P-glycoprotein (PgP). The description is as above. The format is cell-based. Conditions: human, MES-SA/MX2 cells (PgP over-expressing).
Source text: as §2

For a further data set, the system named is MES-SA cells. The experiment in a line: Free drug cell killing on parental MES-SA cells. The format is cell-based. As to conditions: MEA-SA (parental) cells, No GF120918.
Source text: as §2

A further data set deals with MC38-hFolRα tumors. As to the kind of experiment: MC38-hFOLR1 tumor model, combination with Avelumab. Conditions: ADC Molecule 4 10 or 15 mg/kg once IV; Avelumab q3dx3 intraperitoneally. The format is in vivo.
Setting [4] is: MEA-SA/MX2 cells (PgP over-expressing), No GF120918.

Where two headings read alike, the source gives them in different places.

Source text for A549 cells: Cytotoxic activities of the two ADC molecules were compared in the presence of excess un-conjugated “naked” antibody as competitior, on cells that were positive FolRα expression (Igrov1 and OVCAR3) and on cells that were negative for FolRα expression (A549).
Procedure for Igrov1 cells: The candidate antibody-drug conjugates were tested in cell killing on FolRα-expressing cells, including KB, Igrov1, HeLa and JEG3.

As usually defined, the EC50 is the concentration at which the effect is half-maximal. As a reminder, the AUC(0-inf) is the area under the concentration-time curve extrapolated to infinity. The low end stands for low exposure, the high end for high exposure. The Cmax is the maximum level reached in the sampled fluid or tissue. A word on the clearance: it is a measure of how efficiently the substance is removed, as volume per time. A lower clearance goes with a low capacity for elimination. As to `COc1cc2cc(c1Cl)N(C)C(=O)C[C@H](OC(=O)[C@H](C)N(C)C(=O)CCC(C)(C)S)[C@]1(C)O[C@H]1[C@H](C)[C@@H]1C[C@@](O)(NC(=O)O1)[C@H](OC)/C=C/C=C(/C)C2` [free drug (II)], the EC50 in the data set with Igrov1 cells (Homo sapiens, IGROV-1) is 4.9 nM; in the data set with A549 cells (Homo sapiens, A549) it was 7.7 nM; in the data set with P-glycoprotein (PgP) (with GF120918 (5 μM), MEA-SA/MX2 cells, with PgP inhibitor GF120918 (5 μM)), 1.7 nM; with P-glycoprotein (PgP) (setting [4]) it was 28 nM; in the data set with MES-SA cells (Homo sapiens, MES-SA), 1.9 nM. The Span in the data set on Igrov1 cells (Igrov1 cells, Table 26) amounted to 90%; with A549 cells (A549 cells, Table 26, NK = No Killing) it was 81%; in data set [3] (setting [4]) it was 100%; in data set [3] (MEA-SA/MX2 cells, with PgP inhibitor GF120918 (5 μM)) it was 98%; in the data set with MES-SA cells, 100%. In addition, in the data set on cell line tested, the “cytotoxic activity of released free drugs” value was “comparable cytotoxic activity”. In addition, the AUC(0-inf) is 129 ng·h/mL in [1] (dose level 0.1 mg/kg) and 242 ng·h/mL in [1] (dose level 0.4 mg/kg). Also, the C0 amounted to 10.7 ng/mL in data set [1] (dose level 0.1 mg/kg) and 62.5 ng/mL in data set [1] (dose level 0.4 mg/kg). Further, the peak concentration (Cmax) in data set [1] (dose level 0.1 mg/kg) came to 9.31 ± 2.19 ng/mL; in data set [1] (dose level 0.4 mg/kg), 53.3 ± 19 ng/mL. The results for the clearance in data set [1] (dose level 0.1 mg/kg) and in [1] (dose level 0.4 mg/kg) were 12.9 mL/min/kg and 27.7 mL/min/kg, respectively. Besides, the AUC(0-t) in [1] (dose level 0.1 mg/kg) is 96.9 ± 11 ng·h/mL; in [1] (dose level 0.4 mg/kg) it was 211 ± 70 ng·h/mL. The half-life is 1340 min in data set [1] (dose level 0.1 mg/kg) and 2660 min in data set [1] (dose level 0.4 mg/kg). The Vd in [1] (dose level 0.1 mg/kg) is 15.8 L/kg; in [1] (dose level 0.4 mg/kg) it was 44.1 L/kg. For the same compound, in [2], the “body weight of the animals” value is recorded as “progressive body weight loss”. The “change in cell killing EC50 in the presence and absence of PgP inhibitor GF120918” value in [3] (GF120918 5 μM) is on record as 17 fold.

Avelumab: the initial tumor response result in the data set with MC38-hFolRα tumors is reported as “tumor stasis until approximately day 7”.
